In brackets after ≈: the same amount, converted by molar mass. Square brackets hold non-standard residues; d marks the D form. Ends that are not written are not given here. Peptide text beside a SMILES is read from it.
Legend:
E. coli DH5a = type: cell-based; conditions: DH5a; for E. coli DH5a MIC / IC50: pH 7.2
How it was run: (§1)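 Peptides were diluted in 10 mM phosphate buffer, pH 7.2 with 0.03% LB and incubated with bacteria (~5×10^6 CFU/ml) for 3 h at 37 °C in microtiter wells. LB was then added, growth continued overnight, and OD 600 nm was read. MIC is the lowest concentration with no growth; IC50 gives 50% growth versus medium.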

B. cereus = type: cell-based; conditions: pH 7.2
How it was run: as §1

Jurkat cells = type: cell-based
Excerpt: (§2) To further investigate the contribution of secondary structure to function, additional Peptides G16-G19 (beyond peptides G1-G15, previously reported) were synthesized. Peptide G16 is identical to G13, except that a D-alanine residue was substituted for the L-alanine at position 30. […] In peptide G17, the two arginine residues in loop two are substituted with glutamine.
(§3) As shown above, substitution of the two arginine residues in Loop 2 with glutamine abrogates activity against Jurkat cells but only slightly affects lysis of S. typhimurium. Peptide G18 is identical to G14 except that a D-arginine was substituted at position 46. […] Peptide G19 incorporates both the R→Q substitutions as well as the D-arginine at position 46.

Salmonella = type: cell-based, S. typhimurium; conditions: pH 7.2
How it was run: as §1

[1] = system: human peripheral blood mononuclear cells (PBMC); assay: Propidium iodide uptake in PBMC; type: cell-based; conditions: for PI uptake in normal human PBMC: 50 μM peptide, three hours
Excerpt: The second assay for effects on mammalian cells involved isolating human peripheral blood mononuclear cells (PBMC) and testing peptide induced uptake of propidium iodide (PI), a measure of membrane disruption. […] Thus, the vast majority of granulysin peptide derivatives are not toxic to mammalian cells even at high concentrations.

U937 cells = assay: Lysis of tumor cells: apoptosis of U937 by 3H-thymidine; conditions: U937, 50 μM peptide, 4-6 hours
Experimental: The effects were tested in two ways. First, peptides were tested for the ability to lyse tumor cells, as judged by induction of apoptosis in the monocyte-like cell line U937. U937 cells were cultured overnight in DMEM supplemented with 10% FCS plus 1 μCi/ml ^3H-thymidine. The next day, cells were washed and cultured in DMEM/10% FCS in the presence of 50 μM peptide for 4-6 hours. Cells were then harvested and ^3H-thymidine determined by beta-scintillation counting. Apoptosis results in DNA fragmentation, so the ^3H-thymidine is reduced in cells undergoing apoptosis.

bacterial strains = assay: organism not typed; type: cell-based
Experimental: (§4) Three preferred peptides G11.46, G12.21 and G14.15, discussed above, were further tested for antimicrobial efficacy under various conditions using the 10% FCS/DMEM assay as described under CFU assay. The incubation times with the bacteria and peptide was three hours, at which time the bacteria were diluted and plated on agar. […] The MIC for each compound is highlighted.
Table 9 below repeats some data presented above in Tables 6, 7, and 8.

S. typhimurium = assay: Lysis of bacteria by counting bacterial colonies on plates; type: cell-based; conditions: colony counting
Excerpt: as §2, §3
The experiments described above characterizing the activity of granulysin peptides G1-G18 relied on counting bacterial colonies on plates. This assay is quite labor intensive and would not allow evaluation of many different compounds on a number of different microbes. Therefore, we optimized an assay in which the entire procedure could be completed in a single microtiter well. […] The OD at 600 nm is read on an ELISA plate reader. […]

Staphylococcus aureus = assay: CFU assay in 10% FCS/DMEM; type: cell-based; conditions: 3 hrs
Experimental: (§5) The CFU assay is the “gold standard” for evaluating antibiotics. Briefly, bacteria are grown overnight in rich medium, such as LB, and then diluted and grown in log phase for 2-4 hours. Cultures are set up as above, with the initial culture media being 10 mM phosphate buffer/0.03% LB; DMEM or RPMI; or DMEM or RPMI plus 10% serum (fetal calf, human, or mouse). After various periods of time, but generally 3 hours or less, aliquots are removed, diluted in LB at various dilutions, and plated on LB agar plates. Plates are incubated overnight at 37° C. and counted on an automatic colony counter.
as §4

E. coli = assay: CFU assay in 10% FCS/DMEM; type: cell-based; conditions: 3 hrs
Experimental: as §5, §4

Salmonella typhimurium = assay: CFU assay in 10% FCS/DMEM; type: cell-based; conditions: 3 hrs
Experimental: as §5, §4

Compound: GRSRWRDVCRNFMRR [Peptide G14, GRSRWRDVCRNFMRR, reference compound]
- E. coli DH5a MIC (E. coli DH5a): 1.37 µM
- IC50 (E. coli DH5a): 890 nM
- B. cereus MIC (B. cereus): 2.8 µM
- IC50 (B. cereus): 1750 nM
- lysis of Jurkat cells (Jurkat cells): lyses both bacteria and mammalian cells
- IC50 (Salmonella): 890 nM
- Salmonella MIC (Salmonella): 1.37 µM

Compound: CSCC[C@H](NC(=O)[C@H](Cc1ccccc1)NC(=O)[C@H](CC(N)=O)NC(=O)[C@@H](CCCNC(=N)N)NC(=O)[C@H](CS)NC(=O)[C@@H](NC(=O)[C@H](CC(=O)O)NC(=O)[C@H](CCCNC(=N)N)NC(=O)[C@H](Cc1c[nH]c2ccccc12)NC(=O)[C@H](CCCNC(=N)N)NC(=O)[C@H](CO)NC(=O)[C@H](CCCNC(=N)N)NC(=O)CN)C(C)C)C(=O)N[C@@H](CCCNC(=N)N)C(=O)N[C@@H](CCCNC(=N)N)C(=O)O [Peptide G18, GRSRWRDVCrNFMRR] (H-GRSRWRDVC[dR]NFMRR-OH)
- lysis of Jurkat cells (Jurkat cells): loses some activity against Jurkat cells

Compound: CSCC[C@@H](NC(=O)[C@@H](Cc1ccccc1)NC(=O)[C@@H](CCCNC(=N)N)NC(=O)[C@@H](CCCNC(=N)N)NC(=O)[C@@H](CO)NC(=O)[C@H](NC(=O)[C@@H](CCCNC(=N)N)NC(=O)[C@H](N)CCCNC(=N)N)C(C)C)C(=O)N[C@H](CCCNC(=N)N)C(=O)N[C@H](CCCNC(=N)N)C(=O)N[C@H](Cc1ccc(O)cc1)C(=O)N[C@H](CCCNC(=N)N)C(=O)N[C@H](CO)C(=O)N[C@H](CCCNC(=N)N)C(=O)N[C@H](CCCNC(=N)N)C(=O)N1CCC[C@@H]1C(=O)N[C@H](CCCNC(=N)N)C(=O)N[C@H](CCCNC(=N)N)C(=O)N[C@H](CC(C)C)C(=O)N[C@@H](C(=O)O)C(C)C [Peptide G12.35, rrvsrrfmrryrsrrprrlv] (H-[dR][dR][dV][dS][dR][dR][dF][dM][dR][dR][dY][dR][dS][dR][dR][dP][dR][dR][dL][dV]-OH)
- toxicity against mammalian cells [1]: somewhat less toxic against mammalian cells
- PI uptake in normal human PBMC [1]: caused PI uptake in normal human PBMC
- E. coli DH5a MIC (E. coli DH5a): 0.11 µM
- IC50 (E. coli DH5a): < 78 nM
- B. cereus MIC (B. cereus): 0.75 µM
- IC50 (B. cereus): 450 nM
- apoptosis of tumor cells (U937 cells): cause apoptosis of tumor cells
- IC50 (Salmonella): 210 nM
- Salmonella MIC (Salmonella): 0.32 µM

Compound: CSCC[C@@H](NC(=O)[C@@H](Cc1ccccc1)NC(=O)[C@@H](CCCNC(=N)N)NC(=O)[C@@H](CCCNC(=N)N)NC(=O)[C@@H](CO)NC(=O)[C@H](NC(=O)[C@@H](CCCNC(=N)N)NC(=O)[C@@H](CCCNC(=N)N)NC(=O)[C@@H](Cc1c[nH]c2ccccc12)NC(=O)[C@@H](CCCNC(=N)N)NC(=O)[C@@H](CO)NC(=O)[C@@H](CCCNC(=N)N)NC(=O)CN)C(C)C)C(=O)N[C@H](CCCNC(=N)N)C(=O)N[C@H](CCCNC(=N)N)C(=O)O [Peptide G14.15, grsrwrrvsrrfmrr] (H-G[dR][dS][dR][dW][dR][dR][dV][dS][dR][dR][dF][dM][dR][dR]-OH)
- PI uptake in normal human PBMC [1]: caused PI uptake in normal human PBMC
- MIC (bacterial strains; ATCC#25922, 3 h): 0.63 to 1.25 µM
- MIC (bacterial strains; ATCC#29213, 3 h): 10 µM (≈ 20.6 µg/mL)
- MIC (bacterial strains; ATCC#53522, 3 h): 0.16 µM (≈ 0.33 µg/mL)
- MIC (bacterial strains; SL1344, 3 h): 2.5 to 5 µM
- MIC (E. coli DH5a): 0.3 µM (≈ 0.619 µg/mL)
- E. coli DH5a MIC (E. coli DH5a): 0.1 µM
- IC50 (E. coli DH5a): < 78 nM
- B. cereus MIC (B. cereus): 0.2 µM
- IC50 (B. cereus): < 78 nM
- IC50 (Salmonella): 150 nM
- Salmonella MIC (Salmonella): 0.35 µM

Compound: GQSQWRDVCrNFMRR [Peptide G19]
- lysis of bacteria (S. typhimurium) (S. typhimurium): behaves identically to G115

Compound: gentamicin [reference compound]
- MIC (bacterial strains; E. Coli (ATCC#25922), CFU Assay in 10% FCS/DMEM (3 hrs)): 1.25 µM
- MIC (bacterial strains; Salmonella (SL1344), CFU Assay in 10% FCS/DMEM (3 hrs)): 2.5 to 5 µM
- MIC (bacterial strains; Staph A (ATCC#29213), CFU Assay in 10% FCS/DMEM (3 hrs)): >1.25 µM
- % Survival (CFU Assay) (Staphylococcus aureus; 0.04 μM): 90.73%
- % Survival (CFU Assay) (Staphylococcus aureus; 0.08 μM): 78.94%
- % Survival (CFU Assay) (Staphylococcus aureus; 0.16 μM): 59.49%
- % Survival (CFU Assay) (Staphylococcus aureus; 0.32 μM): 37%
- % Survival (CFU Assay) (Staphylococcus aureus; 0.63 μM): 28.51%
- % Survival (CFU Assay) (Staphylococcus aureus; >1.25 μM): 17.1%
- % Survival (CFU Assay) (E. coli; 0.08 μM): 117.89%
- % Survival (CFU Assay) (E. coli; 0.16 μM): 110.6%
- % Survival (CFU Assay) (E. coli; 0.32 μM): 87.76%
- % Survival (CFU Assay) (E. coli; 0.63 μM): 17.05%
- % Survival (CFU Assay) (E. coli; 1.25 μM): 0.21%
- % Survival (CFU Assay) (E. coli; 2.5 μM): 0.052%
- % Survival (CFU Assay) (Salmonella typhimurium; 0.04 μM): 119.73%
- % Survival (CFU Assay) (Salmonella typhimurium; 0.08 μM): 103.72%
- % Survival (CFU Assay) (Salmonella typhimurium; 0.16 μM): 105.73%
- % Survival (CFU Assay) (Salmonella typhimurium; 0.32 μM): 93.27%
- % Survival (CFU Assay) (Salmonella typhimurium; 0.63 μM): 70.15%
- % Survival (CFU Assay) (Salmonella typhimurium; >1.25 μM): 29.7%

Compound: CSCC[C@@H](NC(=O)[C@H]1CCCN1C(=O)[C@@H](CCCNC(=N)N)NC(=O)[C@@H](CCCNC(=N)N)NC(=O)[C@@H](CO)NC(=O)[C@H](NC(=O)[C@@H](CCCNC(=N)N)NC(=O)[C@H](N)CCCNC(=N)N)C(C)C)C(=O)N[C@H](CCCNC(=N)N)C(=O)N[C@H](CCCNC(=N)N)C(=O)N[C@H](Cc1ccc(O)cc1)C(=O)N[C@H](CCCNC(=N)N)C(=O)N[C@H](CO)C(=O)N[C@H](CCCNC(=N)N)C(=O)N[C@H](CCCNC(=N)N)C(=O)N1CCC[C@@H]1C(=O)N[C@H](CCCNC(=N)N)C(=O)N[C@H](CCCNC(=N)N)C(=O)N[C@H](CC(C)C)C(=O)N[C@@H](C(=O)O)C(C)C [Peptide G12.21, rrvsrrpmrryrsrrprrlv] (H-[dR][dR][dV][dS][dR][dR][dP][dM][dR][dR][dY][dR][dS][dR][dR][dP][dR][dR][dL][dV]-OH)
- toxicity against mammalian cells [1]: no toxicity
- MIC (bacterial strains; ATCC#25922, 3 h): 0.63 µM (≈ 1.71 µg/mL)
- MIC (bacterial strains; ATCC#29213, 3 h): 0.32 to 0.63 µM
- MIC (bacterial strains; ATCC#53522, 3 h): 0.02 µM (≈ 0.0542 µg/mL)
- MIC (bacterial strains; SL1344, 3 h): 1.25 to 2.5 µM
- MIC (E. coli DH5a): 0.2 µM (≈ 0.542 µg/mL)
- E. coli DH5a MIC (E. coli DH5a): 0.2 µM
- IC50 (E. coli DH5a): < 78 nM
- B. cereus MIC (B. cereus): 0.35 µM
- IC50 (B. cereus): 210 nM
- IC50 (Salmonella): 210 nM
- Salmonella MIC (Salmonella): 0.35 µM

Compound: QRSVSNAaTRVCRTGQSQW [Peptide G17]
- lysis of bacteria (S. typhimurium) (S. typhimurium): no longer exhibits activity against S. typhimurium
- lysis of Jurkat cells (Jurkat cells): Neither peptide G16 nor G17 lysed Jurkat cells in an appreciable way

Compound: CC[C@@H](C)[C@@H](NC(=O)[C@@H](CCCNC(=N)N)NC(=O)[C@@H](CCCNC(=N)N)NC(=O)[C@@H](CO)NC(=O)[C@@H](CCCNC(=N)N)NC(=O)[C@@H](Cc1ccc(O)cc1)NC(=O)[C@@H](CCCNC(=N)N)NC(=O)[C@@H](CCCNC(=N)N)NC(=O)[C@@H](CCSC)NC(=O)[C@@H](Cc1ccccc1)NC(=O)[C@@H](CCCNC(=N)N)NC(=O)[C@@H](CCCNC(=N)N)NC(=O)[C@@H](CO)NC(=O)[C@H](NC(=O)[C@@H](CCCNC(=N)N)NC(=O)[C@H](N)CCCNC(=N)N)C(C)C)C(=O)N[C@H](CCCNC(=N)N)C(=O)N[C@H](CCCNC(=N)N)C(=O)N[C@H](CC(C)C)C(=O)N[C@@H](C(=O)O)C(C)C [Peptide G12.34, rrvsrrfmrryrsrrirrlv] (H-[dR][dR][dV][dS][dR][dR][dF][dM][dR][dR][dY][dR][dS][dR][dR][dI][dR][dR][dL][dV]-OH)
- toxicity against mammalian cells [1]: somewhat lytic against mammalian cells
- PI uptake in normal human PBMC [1]: caused PI uptake in normal human PBMC
- E. coli DH5a MIC (E. coli DH5a): 0.2 µM
- IC50 (E. coli DH5a): 110 nM
- B. cereus MIC (B. cereus): 0.31 µM
- IC50 (B. cereus): 120 nM
- apoptosis of tumor cells (U937 cells): cause apoptosis of tumor cells
- IC50 (Salmonella): 210 nM
- Salmonella MIC (Salmonella): 0.78 µM

Reference: patent US7745390B2, “Antimicrobial peptides” (priority 2005, dated 2010)
